Values joined by “and” are separate entries in the source; they are usually repeats but may differ in a detail not shown here. Equal values may be shown once. Inconclusive results and toxic doses are left out. Rule as the data show it: active = T/C of 150% or more; inactive = T/C below 125%. Square brackets hold non-standard residues; d marks the D form. Peptide text beside a SMILES is read from it. * marks the point of attachment. ξ: configuration not given here. Cbz = O=C(OCc1ccccc1)*; ξI = CCC(C)C(N)C(=O)O; OBn = c1ccc(CO*)cc1
Tested on: L1210 leukemia ip in BDF1 mice, survival T/C
Experiment: NCI In Vivo Anticancer Drug Screen. Data for tumor model L1210 Leukemia (intraperitoneal) in B6D2F1 (BDF1) mice
Conditions: higher = longer survival
Method in brief: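 Mice bearing the transplanted tumor received compound or vehicle. Survival of the treated group was divided by that of the vehicle-treated control group to give the ratio.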

[1] = endpoint: mean survival time, dose: 100.0 mg/kg/injection, schedule: Q01DX009 (ip), vehicle: Klucel (hydroxypropylcellulose) (HPC)
[2] = endpoint: mean survival time, dose: 200.0 mg/kg/injection, schedule: Q01DX009 (ip), vehicle: Klucel (hydroxypropylcellulose) (HPC)
[3] = endpoint: mean survival time, dose: 100.0 mg/kg/injection, schedule: Q01DX001 (ip), vehicle: saline
[4] = endpoint: mean survival time, dose: 200.0 mg/kg/injection, schedule: Q01DX001 (ip), vehicle: saline
[5] = endpoint: mean survival time, dose: 100.0 mg/kg/injection, schedule: Q04DX003 (ip), vehicle: saline with Tween-80
[6] = endpoint: mean survival time, dose: 200.0 mg/kg/injection, schedule: Q04DX003 (ip), vehicle: saline with Tween-80
[7] = endpoint: mean survival time, dose: 400.0 mg/kg/injection, schedule: Q04DX003 (ip), vehicle: saline with Tween-80
[8] = endpoint: mean survival time, dose: 100.0 mg/kg/injection, schedule: Q04DX002 (ip), vehicle: saline with Tween-80
[9] = endpoint: mean survival time, dose: 200.0 mg/kg/injection, schedule: Q04DX002 (ip), vehicle: saline with Tween-80
[10] = endpoint: mean survival time, dose: 400.0 mg/kg/injection, schedule: Q04DX002 (ip), vehicle: saline with Tween-80
[11] = endpoint: mean survival time, dose: 100.0 mg/kg/injection, schedule: Q01DX009 (ip), vehicle: saline with Tween-80
[12] = endpoint: mean survival time, dose: 200.0 mg/kg/injection, schedule: Q01DX009 (ip), vehicle: saline with Tween-80

Measured: T/C

CCCP(C)(=S)CCC
inactive: endpoint: mean survival time, dose: 25.0 mg/kg/injection, schedule: Q04DX002 (ip), vehicle: Klucel (hydroxypropylcellulose) (HPC) 112 % of control | endpoint: mean survival time, dose: 50.0 mg/kg/injection, schedule: Q04DX002 (ip), vehicle: Klucel (hydroxypropylcellulose) (HPC) 108 % of control | endpoint: mean survival time, dose: 100.0 mg/kg/injection, schedule: Q04DX002 (ip), vehicle: Klucel (hydroxypropylcellulose) (HPC) 112 % of control

CC1OC(OC2C(O)CC(OC3C(O)CC(OC4CCC5(C)C(CCC6C5CCC5(C)C(C7=CC(=O)OC7)CCC65O)C4)OC3C)OC2C)CC(O)C1O (stereo not given)
inactive: endpoint: mean survival time, dose: 1.0 mg/kg/injection, schedule: Q01DX015 (sc), vehicle: steriod suspending solution 93 % of control | endpoint: mean survival time, dose: 2.0 mg/kg/injection, schedule: Q01DX015 (sc), vehicle: steriod suspending solution 98 % of control | endpoint: mean survival time, dose: 4.0 mg/kg/injection, schedule: Q01DX015 (sc), vehicle: steriod suspending solution 101 % of control | endpoint: mean survival time, dose: 8.0 mg/kg/injection, schedule: Q01DX015 (sc), vehicle: steriod suspending solution 102 % of control | endpoint: mean survival time, dose: 10.0 mg/kg/injection, schedule: Q01DX001 (ip), vehicle: saline 106 % of control | endpoint: mean survival time, dose: 16.0 mg/kg/injection, schedule: Q01DX015 (sc), vehicle: steriod suspending solution 105 % of control | endpoint: mean survival time, dose: 20.0 mg/kg/injection, schedule: Q01DX001 (ip), vehicle: saline 105 % of control | endpoint: mean survival time, dose: 32.0 mg/kg/injection, schedule: Q01DX015 (sc), vehicle: steriod suspending solution 101 % of control | endpoint: mean survival time, dose: 40.0 mg/kg/injection, schedule: Q01DX001 (ip), vehicle: saline 103 % of control | endpoint: median survival time, dose: 0.5 mg/kg/injection, schedule: Q01DX005 (iv), vehicle: water 99 % of control | endpoint: median survival time, dose: 0.5 mg/kg/injection, schedule: Q01DX010 (ip), vehicle: methylcellulose (MC) 91 % of control | endpoint: median survival time, dose: 0.5 mg/kg/injection, schedule: Q01DX010 (ip), vehicle: water 99 % of control and 100 % of control | endpoint: median survival time, dose: 1.0 mg/kg/injection, schedule: Q01DX005 (iv), vehicle: water 99 % of control | endpoint: median survival time, dose: 1.0 mg/kg/injection, schedule: Q01DX010 (ip), vehicle: methylcellulose (MC) 102 % of control | endpoint: median survival time, dose: 1.0 mg/kg/injection, schedule: Q01DX010 (ip), vehicle: water 99 % of control and 100 % of control | endpoint: median survival time, dose: 1.0 mg/kg/injection, schedule: Q04DX003 (ip), vehicle: water 99 % of control and 100 % of control | endpoint: median survival time, dose: 1.0 mg/kg/injection, schedule: Q04DX003 (iv), vehicle: water 96 % of control | endpoint: median survival time, dose: 2.0 mg/kg/injection, schedule: Q01DX005 (ip), vehicle: water 95 % of control | endpoint: median survival time, dose: 2.0 mg/kg/injection, schedule: Q01DX005 (iv), vehicle: water 100 % of control | endpoint: median survival time, dose: 2.0 mg/kg/injection, schedule: Q01DX010 (ip), vehicle: methylcellulose (MC) 104 % of control | endpoint: median survival time, dose: 2.0 mg/kg/injection, schedule: Q01DX010 (ip), vehicle: water 105 % of control and 111 % of control | endpoint: median survival time, dose: 2.0 mg/kg/injection, schedule: Q04DX003 (ip), vehicle: water 95 % of control | endpoint: median survival time, dose: 2.0 mg/kg/injection, schedule: Q04DX003 (iv), vehicle: water 92 % of control | endpoint: median survival time, dose: 4.0 mg/kg/injection, schedule: Q01DX005 (ip), vehicle: water 109 % of control | endpoint: median survival time, dose: 4.0 mg/kg/injection, schedule: Q01DX005 (iv), vehicle: water 106 % of control | endpoint: median survival time, dose: 4.0 mg/kg/injection, schedule: Q01DX010 (ip), vehicle: methylcellulose (MC) 103 % of control | endpoint: median survival time, dose: 4.0 mg/kg/injection, schedule: Q01DX010 (ip), vehicle: water 102 % of control and 105 % of control | endpoint: median survival time, dose: 4.0 mg/kg/injection, schedule: Q04DX003 (ip), vehicle: water 100 % of control | endpoint: median survival time, dose: 4.0 mg/kg/injection, schedule: Q04DX003 (iv), vehicle: water 93 % of control | endpoint: median survival time, dose: 8.0 mg/kg/injection, schedule: Q01DX005 (ip), vehicle: water 113 % of control | endpoint: median survival time, dose: 8.0 mg/kg/injection, schedule: Q01DX005 (iv), vehicle: water 86 % of control | endpoint: median survival time, dose: 8.0 mg/kg/injection, schedule: Q01DX010 (ip), vehicle: water 102 % of control and 105 % of control | endpoint: median survival time, dose: 8.0 mg/kg/injection, schedule: Q04DX003 (ip), vehicle: water 86 % of control | endpoint: median survival time, dose: 8.0 mg/kg/injection, schedule: Q04DX003 (iv), vehicle: water 93 % of control | endpoint: median survival time, dose: 16.0 mg/kg/injection, schedule: Q01DX010 (ip), vehicle: water 93 % of control and 94 % of control | endpoint: median survival time, dose: 16.0 mg/kg/injection, schedule: Q04DX003 (ip), vehicle: water 93 % of control | endpoint: median survival time, dose: 16.0 mg/kg/injection, schedule: Q04DX003 (iv), vehicle: water 68 % of control

Cc1nn(C)c(N)c1N=O
inactive: endpoint: mean survival time, dose: 50.0 mg/kg/injection, schedule: Q01DX009 (ip), vehicle: Klucel (hydroxypropylcellulose) (HPC) 102 % of control | [1] 98 % of control | [2] 102 % of control

C/C(=N/N(C)C)c1ccccc1O
inactive: [1] 103 % of control | [2] 106 % of control | endpoint: mean survival time, dose: 400.0 mg/kg/injection, schedule: Q01DX009 (ip), vehicle: Klucel (hydroxypropylcellulose) (HPC) 92 % of control

CC(C)(CO)C(O)C(=O)NN (stereo not given)
inactive: [3] 91 % of control | [4] 94 % of control

O=C(c1ccccc1)C(Oc1ccccc1)c1ccccc1 (stereo not given)
inactive: endpoint: mean survival time, dose: 100.0 mg/kg/injection, schedule: Q04DX002 (ip), vehicle: other 111 % of control | endpoint: mean survival time, dose: 200.0 mg/kg/injection, schedule: Q04DX002 (ip), vehicle: other 107 % of control | endpoint: mean survival time, dose: 400.0 mg/kg/injection, schedule: Q04DX002 (ip), vehicle: other 100 % of control

C(=N\n1cnnc1)/c1ccc2c(c1)CCC2
inactive: [5] 94 % of control | [6] 112 % of control | [7] 98 % of control

O=C(c1ccc([N+](=O)[O-])cc1)C1NC1c1ccccc1 (stereo not given)
inactive: endpoint: mean survival time, dose: 50.0 mg/kg/injection, schedule: Q01DX001 (ip), vehicle: carboxymethylcellulose (CMC) 91 % of control | endpoint: mean survival time, dose: 100.0 mg/kg/injection, schedule: Q01DX001 (ip), vehicle: carboxymethylcellulose (CMC) 97 % of control | endpoint: mean survival time, dose: 200.0 mg/kg/injection, schedule: Q01DX001 (ip), vehicle: carboxymethylcellulose (CMC) 100 % of control | endpoint: mean survival time, dose: 400.0 mg/kg/injection, schedule: Q01DX001 (ip), vehicle: carboxymethylcellulose (CMC) 91 % of control

CCOCCOCCOC(C)Oc1cccc(C(=O)OCC)c1 (stereo not given)
inactive: [8] 103 % of control | [9] 103 % of control | [10] 100 % of control

CN(C)CCCNC(CC#N)CCC#N (stereo not given)
inactive: endpoint: mean survival time, dose: 50.0 mg/kg/injection, schedule: Q01DX009 (ip), vehicle: saline 91 % of control | endpoint: mean survival time, dose: 100.0 mg/kg/injection, schedule: Q01DX009 (ip), vehicle: saline 92 % of control | endpoint: mean survival time, dose: 200.0 mg/kg/injection, schedule: Q01DX009 (ip), vehicle: saline 92 % of control

[O]=[Sn]([OH])[c]1ccccc1
inactive: [8] 102 % of control | [9] 105 % of control | [10] 94 % of control

COc1ccc(N)cc1NC(C)=O
inactive: [3] 102 % of control | [4] 110 % of control

CCCNC(=S)Nc1ccccc1
inactive: endpoint: mean survival time, dose: 75.0 mg/kg/injection, schedule: Q01DX001 (ip), vehicle: other 101 % of control | endpoint: mean survival time, dose: 150.0 mg/kg/injection, schedule: Q01DX001 (ip), vehicle: other 107 % of control

Cc1ccc(S(=O)(O)=S)cc1.[Fe]
inactive: endpoint: mean survival time, dose: 75.0 mg/kg/injection, schedule: Q01DX001 (ip), vehicle: saline 88 % of control | endpoint: mean survival time, dose: 300.0 mg/kg/injection, schedule: Q01DX001 (ip), vehicle: saline 86 % of control

O=C1OCc2cc3ccccc3nc21
inactive: [11] 94 % of control | [5] 105 % of control | [12] 97 % of control | [6] 105 % of control | endpoint: mean survival time, dose: 400.0 mg/kg/injection, schedule: Q01DX009 (ip), vehicle: saline with Tween-80 92 % of control | [7] 96 % of control

CCC(C)C(NC(=O)CNC(=O)OCc1ccccc1)C(=O)OCc1ccccc1 (stereo not drawn) (Cbz-Gly-[ξI]-OBn)
inactive: endpoint: mean survival time, dose: 100.0 mg/kg/injection, schedule: Q04DX003 (ip), vehicle: other 104 % of control | endpoint: mean survival time, dose: 200.0 mg/kg/injection, schedule: Q04DX003 (ip), vehicle: other 98 % of control | endpoint: mean survival time, dose: 400.0 mg/kg/injection, schedule: Q04DX003 (ip), vehicle: other 103 % of control

OCC12NC(=S)OC1C(O)C(O)CO2 (stereo not given)
inactive: endpoint: mean survival time, dose: 50.0 mg/kg/injection, schedule: Q01DX009 (ip), vehicle: saline with Tween-80 104 % of control | [11] 104 % of control | [12] 104 % of control
